The target in assay [1] is T1, ALDH2 (Mus musculus, UniProt P47738).
T1 construct: In this study we have also determined the ALDH2 activity in muscle tissue; from tissue; host or cells: skeletal muscle of WT mice with femoral artery occlusion
T1 sequence (P47738 20-519): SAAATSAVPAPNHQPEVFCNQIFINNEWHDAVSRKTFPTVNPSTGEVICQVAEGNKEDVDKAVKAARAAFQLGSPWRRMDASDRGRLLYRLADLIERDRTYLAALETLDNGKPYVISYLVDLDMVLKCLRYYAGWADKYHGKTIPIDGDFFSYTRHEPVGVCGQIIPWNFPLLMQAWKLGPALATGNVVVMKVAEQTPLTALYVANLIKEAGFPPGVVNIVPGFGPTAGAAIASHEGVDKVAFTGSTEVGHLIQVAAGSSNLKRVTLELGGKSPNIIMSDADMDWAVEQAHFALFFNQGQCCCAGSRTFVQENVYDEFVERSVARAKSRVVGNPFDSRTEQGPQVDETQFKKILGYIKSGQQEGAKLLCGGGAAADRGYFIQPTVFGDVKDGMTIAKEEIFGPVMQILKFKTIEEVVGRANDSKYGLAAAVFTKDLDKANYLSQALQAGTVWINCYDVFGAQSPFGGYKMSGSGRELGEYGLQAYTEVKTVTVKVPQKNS
As to the kind of experiment: ALDH2 activity of muscle tissue in PAD mice. It counts as in vivo. Conditions: osmotic pump for 28 days. As to the method: (§1) The animals, WT mice age 18-22 weeks, were anesthetized with an intraperitoneal (IP) injection of esketamine (100 mg/ml) dose 80-100 mg/kg and xylazine (20 mg/ml) dose 4-6 mg/kg. Hair was entirely removed from the surgical area and a longitudinal incision was made beginning at the inguinal crease along the femoral vessels. The connective tissue sheet between the femoral artery and vein was then carefully dissected and an opening between the femoral artery and vein was made. Artery ligation thread was then used to occlude the femoral artery using triple surgical knots. The incision was then closed and the animals were administered a single dose of buprenorphine (0.1 mg/kg) subcutaneously to control ischemic pain.
(§2) The animals under permanent femoral artery occlusion at day zero, were treated with ALDH2 activators, Alda-1 and AC112, via osmotic pump for 28 days. The effects of the compounds of the present invention on functional capacity were assessed in mice using treadmill exercise in a metabolic chamber.
In this study we have also determined the ALDH2 activity in muscle tissue.

Assay [2] has as its system PAD wild type mice. As to the kind of experiment: Limb ischemia model for peripheral arterial disease (PAD). It counts as in vivo. Conditions: osmotic pump for 28 days. As to the method: Mice are anesthetized and hair is entirely removed from the surgical area. A longitudinal incision is inguinal crease along the femoral vessels and the connective tissue sheet between the femoral artery and vein is carefully dissected. An opening between the femoral artery and vein is made and the femoral artery is occluded using triple surgical knots. The incision is then closed.
The animals under permanent femoral artery occlusion are treated with compounds of formula (I) and the effects of the compounds on functional capacity is assessed in mice using treadmill exercise in a metabolic chamber.
The limb ischemia-murine animal model was utilized as a surrogated model for peripheral arterial disease as described in Nature Protocols, 4, 1737-1748 (2009). (Limbourg, A., et. als., Evaluation of postnatal arteriogenesis and angiogenesis in a mouse model of hind-limb ischemia, Nature Protocols, 4, 1737-1748 (2009)). All experiments were run according to national and institutional regulations concerning the use of animals for research purposes and permissions to carry out experiments have to be obtained.
as §1, §2

The target of assay [3] is T2, ALDH2 (Homo sapiens, UniProt P05091).
T2 construct: His-tag (N); made in house; host or cells: E. coli BL21
T2 sequence (P05091 18-517): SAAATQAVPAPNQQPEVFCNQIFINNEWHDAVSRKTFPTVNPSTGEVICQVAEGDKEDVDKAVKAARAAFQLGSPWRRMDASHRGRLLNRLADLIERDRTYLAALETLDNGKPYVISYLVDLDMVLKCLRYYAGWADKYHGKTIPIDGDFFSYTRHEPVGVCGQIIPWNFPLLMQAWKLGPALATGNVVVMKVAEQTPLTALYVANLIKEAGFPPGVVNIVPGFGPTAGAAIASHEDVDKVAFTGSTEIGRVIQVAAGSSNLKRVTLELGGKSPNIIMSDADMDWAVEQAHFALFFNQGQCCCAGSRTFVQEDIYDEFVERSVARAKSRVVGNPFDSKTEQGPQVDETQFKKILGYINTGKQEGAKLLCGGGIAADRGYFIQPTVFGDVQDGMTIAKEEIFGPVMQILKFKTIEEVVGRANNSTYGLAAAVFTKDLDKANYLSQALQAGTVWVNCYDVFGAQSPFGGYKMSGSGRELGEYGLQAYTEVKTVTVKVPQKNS
As to the kind of experiment: ALDH2 activity with 20 μM of the compound (Table 3). It counts as biochemical. Conditions: 20 μM compound. The essentials: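 Compound was tested at 20 μM. ALDH2 oxidation of acetaldehyde with NAD+ cofactor was followed spectrophotometrically as NADH accumulation at 340 nm. Activity is expressed relative to the enzyme's baseline activity, taken as 100%.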

`COc1ccc(CNC(=O)c2cc(-c3ncccc3CO)ccc2OCC(C)C)cc1F` [AC112]: the “ALDH2 activity of muscle tissue” value in assay [1] was “increased the ALDH2 activity of muscle tissue”. In addition, in assay [2], the pain threshold entry is recorded as “improve pain threshold” and the “skeletal muscle resistance to fatigue (contractility measured ex vivo)” value is “improve the skeletal muscle resistance to fatigue”. The “PAD-induced skeletal muscle atrophy” value in assay [2] (WT mice) is “minimizes PAD-induced skeletal muscle atrophy”. Also, in assay [2] (treadmill), the running distance result was “improve” and the running time result is “improve”. Also, the activity at 20 µM in assay [3] is over 250%.

The values above are taken from patent US9879036B2, “Mitochondrial aldehyde dehydrogenase-2 binding compounds and methods of use thereof” (Aviv Therapeutics, Inc., priority 2014, dated 2018).
